In ChEMBL document CHEMBL4184130, “Zamamidine D, a Manzamine Alkaloid from an Okinawan Amphimedon sp. Marine Sponge” (J Nat Prod, 2017):
In brackets after ≈: the same amount, converted by molar mass.

Experiments:
[1] = test system: Escherichia coli; assay: Antimicrobial activity against Escherichia coli ATCC 25922 incubated for 72 hrs; assay type: functional; conditions: ATCC 25922, 72 h
[2] = test system: Staphylococcus aureus; assay: Antimicrobial activity against Staphylococcus aureus 209P incubated for 72 hrs; assay type: functional
[3] = test system: Bacillus subtilis; assay: Antimicrobial activity against Bacillus subtilis PC1219 incubated for 72 hrs; assay type: functional; conditions: PC1219, 72 h
[4] = test system: Micrococcus luteus; assay: Antimicrobial activity against Micrococcus luteus IFM2066 incubated for 72 hrs; assay type: functional; conditions: IFM2066, 72 h
[5] = test system: Aspergillus niger; assay: Antimicrobial activity against Aspergillus niger IFM62678 incubated for 72 hrs; assay type: functional, organism-based; conditions: IFM62678, 72 h
[6] = test system: Trichophyton mentagrophytes; assay: Antimicrobial activity against Trichophyton mentagrophytes IFM62679 incubated for 72 hrs; assay type: functional, organism-based; conditions: IFM62679, 72 h
[7] = test system: Candida albicans; assay: Antimicrobial activity against Candida albicans IFM62680 incubated for 72 hrs; assay type: functional, organism-based; conditions: IFM62680, 72 h
[8] = test system: Cryptococcus neoformans; assay: Antimicrobial activity against Cryptococcus neoformans IFM62681 incubated for 72 hrs; assay type: functional, organism-based; conditions: IFM62681, 72 h

Structure (SMILES): NCCc1c(C(C2=C[C@@]3(O)CC/C=C\CCCCN4CC[C@@H]2[C@]2(C[C@@H]5/C=C\CCCCN5[C@H]23)C4)c2[nH]c3ccccc3c2CCN)[nH]c2ccccc12
- MIC [1]: 32 µg/mL (≈ 44.9 µM)
- MIC [2]: 8 µg/mL (≈ 11.2 µM)
- MIC [3]: 8 µg/mL (≈ 11.2 µM)
- MIC [4]: 8 µg/mL (≈ 11.2 µM)
- IC50 [5]: 16 µg/mL (≈ 22.4 µM)
- IC50 [6]: 8 µg/mL (≈ 11.2 µM)
- IC50 [7]: 16 µg/mL (≈ 22.4 µM)
- IC50 [8]: 2 µg/mL (≈ 2.8 µM)
